We go through 19 compounds from patent publication US9751887B2, “Imidazo[1,2-b]pyridazine derivatives as kinase inhibitors” (Daiichi Sankyo Company, Limited, priority 2012, dated 2017).

The target of assay [1] is T1, ROS1 (Homo sapiens, UniProt P08922).
T1 construct: purchased Carna Biosciences 08-163
Nature of the assay: ROS1 kinase inhibitory activity evaluation (mobility shift, EZ Reader II). The format is biochemical. The note with it: ROS1 25 pg/μL, FL-Peptide 22 substrate, three separate measurements. How it is done:
Next, a substrate reaction solution was prepared. […] Then, the reaction stop solution was added thereto at a concentration of 40 μL/well. Substrate phosphorylation intensity was measured using EZ Reader II (Caliper Life Sciences).

Assay [2] concerns the target T1, ROS1. Nature of the assay: ROS1 autophosphorylation inhibitory activity evaluation (ADP-Glo). The assay is classed as biochemical. Conditions: 200 nM inactive ROS1, ATP 1 mM, 25° C. 1.5 hours, ADP generated, four separate measurements. How it is done: Fifty mM HEPES (pH 7.5), 10 mM MgCl2, 0.01% Brij-58, and 2.5 mM DTT were mixed to prepare an enzymatic reaction solution. […] ATP (final concentration: 1 mM) was further added thereto at a concentration of 2.5 μL/well. The resulting plate was left standing at 25° C. for 1.5 hours to cause enzymatic reaction. After the completion of enzymatic reaction, ADP-Glo Reagent-1 (Promega, V9103) was added thereto at a concentration of 2.5 μL/well, and the plate was left standing at room temperature for 60 minutes. Then, ADP-Glo Reagent-2 (Promega) was added thereto at a concentration of 5 μL/well, and the plate was left standing at room temperature for 60 minutes. The amount of ADP generated by the autophosphorylation of ROS1 was measured using EnVision (PerkinElmer Japan). The amount of ADP generated in four separate measurements was defined as the autophosphorylation intensity of ROS1. IC50 values were calculated by curve fitting using GraphPad Prism version 4 (GraphPad software).
(In ADP-Glo the light output rises with the ADP produced.)

The subject of assay [3] is HCC78 cells having ROS1 fusion gene. Nature of the assay: HCC78 cell growth assay (CellTiter-Glo). Conditions: Homo sapiens, HCC78, 72 h, 72 hours culture, 2% FBS medium, luminescence, four separate measurements; read-out: growth inhibitory effect on HCC78 cells having ROS1 fusion gene IC50. The assay is classed as cell-based. The protocol:
Each compound of the present invention was assayed for its cell growth inhibitory effect using HCC78 cells having ROS1 fusion gene.
The suspension was dispensed at a concentration of 100 μL/well to a 96-well culture plate for cell culture (SUMITOMO BAKELITE, Cat No MS-0096S) (hereinafter, referred to as an assay plate). […] In this context, the final concentration of DMSO was set to 0.4%. Then, the cells were cultured for 72 hours in a CO2 incubator.
CellTiter-Glo Luminescent Cell Viability Assay reagent (Promega, Cat No G7571) was dispensed at a concentration of 100 μL/well to the assay plate. The contents in each well were reacted at room temperature for 10 minutes while stirred using a plate mixer. […] The luminescence intensity of each well was measured using EnVision. The luminescence intensity of each well obtained in four separate measurements was defined as the number of cells. IC50 values were calculated by curve fitting using GraphPad Prism version 4.
A general note: ATP-based viability assays read luminescence as a measure of living cells.

In general, IC50 refers to the concentration that inhibits the measured activity by half.

T1 sequence (P08922 28-2347): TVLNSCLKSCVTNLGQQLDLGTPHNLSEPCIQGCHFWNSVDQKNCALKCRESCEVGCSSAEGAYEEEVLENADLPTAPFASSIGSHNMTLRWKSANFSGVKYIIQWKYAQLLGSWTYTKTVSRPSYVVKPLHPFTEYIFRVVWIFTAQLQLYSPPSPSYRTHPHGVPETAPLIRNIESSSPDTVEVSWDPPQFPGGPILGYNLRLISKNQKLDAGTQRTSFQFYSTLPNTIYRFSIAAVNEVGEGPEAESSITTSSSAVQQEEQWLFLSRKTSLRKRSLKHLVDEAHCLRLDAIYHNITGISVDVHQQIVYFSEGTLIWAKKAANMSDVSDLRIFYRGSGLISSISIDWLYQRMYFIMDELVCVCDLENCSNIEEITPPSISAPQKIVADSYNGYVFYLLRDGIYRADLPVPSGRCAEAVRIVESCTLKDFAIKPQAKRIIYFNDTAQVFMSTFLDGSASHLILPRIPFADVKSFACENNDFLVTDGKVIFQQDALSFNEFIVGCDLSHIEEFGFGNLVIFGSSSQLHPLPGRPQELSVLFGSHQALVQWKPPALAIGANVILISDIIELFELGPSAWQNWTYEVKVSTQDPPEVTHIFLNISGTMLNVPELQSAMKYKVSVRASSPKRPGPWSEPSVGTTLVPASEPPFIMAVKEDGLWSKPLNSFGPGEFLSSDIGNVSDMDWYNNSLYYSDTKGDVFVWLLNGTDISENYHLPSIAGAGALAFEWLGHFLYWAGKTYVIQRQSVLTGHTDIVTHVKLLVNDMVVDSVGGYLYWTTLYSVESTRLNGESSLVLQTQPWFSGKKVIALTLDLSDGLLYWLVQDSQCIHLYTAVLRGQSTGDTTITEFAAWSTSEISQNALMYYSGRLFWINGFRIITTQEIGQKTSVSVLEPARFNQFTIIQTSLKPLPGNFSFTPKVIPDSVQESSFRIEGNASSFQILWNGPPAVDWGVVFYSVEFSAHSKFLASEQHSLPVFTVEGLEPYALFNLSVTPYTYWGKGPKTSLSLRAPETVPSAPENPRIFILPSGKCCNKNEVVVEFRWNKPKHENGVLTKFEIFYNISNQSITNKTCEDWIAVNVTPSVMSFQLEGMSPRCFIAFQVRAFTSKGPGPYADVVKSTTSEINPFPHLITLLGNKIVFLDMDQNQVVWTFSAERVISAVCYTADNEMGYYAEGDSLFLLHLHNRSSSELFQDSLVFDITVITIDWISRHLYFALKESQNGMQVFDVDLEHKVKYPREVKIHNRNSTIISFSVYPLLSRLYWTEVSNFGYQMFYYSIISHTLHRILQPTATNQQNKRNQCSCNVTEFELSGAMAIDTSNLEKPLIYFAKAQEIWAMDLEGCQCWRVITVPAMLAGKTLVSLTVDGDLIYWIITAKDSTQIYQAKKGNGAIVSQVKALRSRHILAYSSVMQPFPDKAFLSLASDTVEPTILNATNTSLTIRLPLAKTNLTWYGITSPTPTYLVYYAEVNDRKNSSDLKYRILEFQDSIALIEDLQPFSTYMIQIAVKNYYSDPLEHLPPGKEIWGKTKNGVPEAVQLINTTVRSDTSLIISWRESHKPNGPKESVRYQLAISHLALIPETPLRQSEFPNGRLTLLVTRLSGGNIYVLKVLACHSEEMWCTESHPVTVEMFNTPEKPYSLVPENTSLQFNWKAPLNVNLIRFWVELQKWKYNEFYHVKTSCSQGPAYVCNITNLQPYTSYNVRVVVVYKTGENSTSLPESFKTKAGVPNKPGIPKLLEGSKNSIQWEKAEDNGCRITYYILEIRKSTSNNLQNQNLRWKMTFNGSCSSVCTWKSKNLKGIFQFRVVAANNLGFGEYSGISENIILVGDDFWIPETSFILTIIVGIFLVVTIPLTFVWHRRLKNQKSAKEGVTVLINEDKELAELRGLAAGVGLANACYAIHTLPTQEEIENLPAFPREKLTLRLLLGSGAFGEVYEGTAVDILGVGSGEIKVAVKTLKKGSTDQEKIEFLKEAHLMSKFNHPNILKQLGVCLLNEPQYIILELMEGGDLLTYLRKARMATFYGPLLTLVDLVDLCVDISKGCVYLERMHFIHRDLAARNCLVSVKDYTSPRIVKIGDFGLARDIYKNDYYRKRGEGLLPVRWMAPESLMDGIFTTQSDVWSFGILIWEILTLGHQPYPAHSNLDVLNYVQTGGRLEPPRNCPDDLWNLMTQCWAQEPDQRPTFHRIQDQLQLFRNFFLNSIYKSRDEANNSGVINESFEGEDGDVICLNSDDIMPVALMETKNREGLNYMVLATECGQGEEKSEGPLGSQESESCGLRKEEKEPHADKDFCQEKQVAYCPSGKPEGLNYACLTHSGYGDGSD

As for `C[C@@H](Nc1ccc2ncc(-c3ccc(OCC(N)CO)cc3)n2n1)c1cccc(F)c1` (stereo partly drawn) [Example 45, 2-Amino-3-[4-[6-[[(1R)-1-(3-fluorophenyl)ethyl]amino]imidazo[1,2-b]pyridazin-3-yl]phenoxy]propan-1-ol], the IC50 on ROS1 [1] is below 1 nM; on ROS1 [2], below 20 nM; in assay [3], below 20 nM.

As to `CNCCOc1ccc(-c2cnc3ccc(N[C@H](C)c4cccc(F)c4)nn23)cn1` [Example 46, N-[(1R)-1-(3-Fluorophenyl)ethyl]-3-[6-[2-(methylamino)ethoxy]-3-pyridyl]imidazo[1,2-b]pyridazin-6-amine], the concentration for half-maximal inhibition (IC50) at ROS1 [1] is below 1 nM; against ROS1 [2] it was below 20 nM; in assay [3], below 20 nM.

With `C[C@@H](Nc1ccc2ncc(-c3ccc(OC[C@@H]4C[C@H](F)CN4)nc3)n2n1)c1cccc(F)c1` [Example 47, N-[(1R)-1-(3-Fluorophenyl)ethyl]-3-[6-[[(2S,4S)-4-fluoropyrrolidin-2-yl]methoxy]-3-pyridyl]imidazo[1,2-b]pyridazin-6-amine], the figures for the half-inhibitory concentration (IC50) (at ROS1 [1]; at ROS1 [2]; in assay [3]) were below 1 nM, below 20 nM and below 20 nM, respectively.

As for `C[C@@H](Nc1ccc2ncc(-c3ccc(OC[C@@H]4CCCN4)c(C#N)c3)n2n1)c1cccc(F)c1` [Example 48, 5-[6-[[(1R)-1-(3-Fluorophenyl)ethyl]amino]imidazo[1,2-b]pyridazin-3-yl]-2-[[(2S)-pyrrolidin-2-yl]methoxy]benzonitrile], the values for the IC50 (on ROS1 [1]; on ROS1 [2]; in assay [3]) were below 1 nM, below 20 nM and below 20 nM, respectively.

With `CC[C@H](N)COc1ccc(-c2cnc3ccc(N[C@H](C)c4cccc(F)c4)nn23)cc1` [Example 49, 3-[4-[(2S)-2-Aminobutoxy]phenyl]-N-[(1R)-1-(3-fluorophenyl)ethyl]imidazo[1,2-b]pyridazin-6-amine], the IC50 at ROS1 [1] is below 1 nM; at ROS1 [2], below 20 nM; in assay [3], below 20 nM.

On to `C[C@@H](Nc1ccc2ncc(-c3cccc(OC[C@@H]4CCCN4)c3)n2n1)c1cccc(F)c1` [Example 50, N-[(1R)-1-(3-Fluorophenyl)ethyl]-3-[3-[[(2S)-pyrrolidin-2-yl]methoxy]phenyl]imidazo[1,2-b]pyridazin-6-amine], for which the concentration for half-maximal inhibition (IC50) at ROS1 [1] is below 1 nM; against ROS1 [2], below 20 nM; in assay [3], 20 to 100 nM.

In the case of `C[C@@H](Nc1ccc2ncc(-c3ccc(O[C@H]4C[C@H](N)C4)cc3)n2n1)c1cccc(F)c1` [Example 51], the IC50 at ROS1 [1] was 1 to 10 nM; on ROS1 [2], below 20 nM; in assay [3], 20 to 100 nM.

With `CC[C@@H](N)COc1ccc(-c2cnc3ccc(N[C@H](C)c4cccc(F)c4)nn23)cc1` [Example 52, 3-[4-[(2R)-2-Aminobutoxy]phenyl]-N-[(1R)-1-(3-fluorophenyl)ethyl]imidazo[1,2-b]pyridazin-6-amine], the concentration for half-maximal inhibition (IC50) at ROS1 [1] is below 1 nM; on ROS1 [2] it was below 20 nM; in assay [3], 20 to 100 nM.

Take `C[C@@H](N)COc1ccc(-c2cnc3ccc(N[C@H](C)c4cccc(F)c4)nn23)cn1` [Example 53, 3-[6-[(2R)-2-Aminopropoxy]-3-pyridyl]-N-[(1R)-1-(3-fluorophenyl)ethyl]imidazo[1,2-b]pyridazin-6-amine]: the IC50 on ROS1 [1] is below 1 nM; at ROS1 [2], below 20 nM; in assay [3], below 20 nM.

Regarding `C[C@@H](Nc1ccc2ncc(-c3ccc(OC[C@@H](N)[C@@H](C)O)cc3)n2n1)c1cccc(F)c1` [Example 54, (2R,3R)-3-Amino-4-[4-[6-[[(1R)-1-(3-fluorophenyl)ethyl]amino]imidazo[1,2-b]pyridazin-3-yl]phenoxy]butan-2-ol], the figures for the IC50 (on ROS1 [1]; against ROS1 [2]; in assay [3]) were below 1 nM, below 20 nM and below 20 nM, respectively.

Turning to `C[C@H](O)[C@@H](N)COc1ccc(-c2cnc3ccc(N[C@H](C)c4cccc(F)c4)nn23)cc1` [Example 55, (2S,3S)-3-Amino-4-[4-[6-[[(1R)-1-(3-fluorophenyl)ethyl]amino]imidazo[1,2-b]pyridazin-3-yl]phenoxy]butan-2-ol], the values for the 50% inhibitory concentration (IC50) (on ROS1 [1]; against ROS1 [2]; in assay [3]) were below 1 nM, below 20 nM and below 20 nM, respectively.

For the compound `C[C@@H](Nc1ccc2ncc(-c3ccc(OC[C@@H](N)CO)cc3)n2n1)c1cccc(F)c1` [Example 56, (2S)-2-Amino-3-[4-[6-[[(1R)-1-(3-fluorophenyl)ethyl]amino]imidazo[1,2-b]pyridazin-3-yl]phenoxy]propan-1-ol], the results for the half-maximal inhibitory concentration (IC50) (on ROS1 [1]; on ROS1 [2]; in assay [3]) were below 1 nM, below 20 nM and below 20 nM, respectively.

For `C[C@@H](Nc1ccc2ncc(-c3cccc(OC[C@@H]4CCN4)c3)n2n1)c1cccc(F)c1` [Example 57, 3-[3-[[(2S)-Azetidin-2-yl]methoxy]phenyl]-N-[(1R)-1-(3-fluorophenyl)ethyl]imidazo[1,2-b]pyridazin-6-amine], the values for the 50% inhibitory concentration (IC50) (on ROS1 [1]; at ROS1 [2]; in assay [3]) were 1 to 10 nM, 20 to 100 nM and 20 to 100 nM, respectively.

For `CNCCOc1cccc(-c2cnc3ccc(N[C@H](C)c4cccc(F)c4)nn23)c1` [Example 58, N-[(1R)-1-(3-Fluorophenyl)ethyl]-3-[3-[2-(methylamino)ethoxy]phenyl]imidazo[1,2-b]pyridazin-6-amine], the figures for the half-maximal inhibitory concentration (IC50) (on ROS1 [1]; at ROS1 [2]; in assay [3]) were 1 to 10 nM, below 20 nM and 20 to 100 nM, respectively.

In the case of `C[C@@H](Nc1ccc2ncc(-c3ccc(OC[C@H](N)CO)cc3)n2n1)c1cccc(F)c1` [Example 59, (2R)-2-Amino-3-[4-[6-[[(1R)-1-(3-fluorophenyl)ethyl]amino]imidazo[1,2-b]pyridazin-3-yl]phenoxy]propan-1-ol], the IC50 on ROS1 [1] was below 1 nM; on ROS1 [2] it was below 20 nM; in assay [3], below 20 nM.

As for `C[C@@H](N)COc1cccc(-c2cnc3ccc(N[C@H](C)c4cccc(F)c4)nn23)c1` [Example 60, 3-[3-[(2R)-2-Aminopropoxy]phenyl]-N-[(1R)-1-(3-fluorophenyl)ethyl]imidazo[1,2-b]pyridazin-6-amine], the values for the IC50 (at ROS1 [1]; against ROS1 [2]; in assay [3]) were 1 to 10 nM, below 20 nM and 20 to 100 nM, respectively.

For `C[C@@H](Nc1ccc2ncc(-c3ccc(O[C@H]4C[C@@H](N)C4)cc3)n2n1)c1cccc(F)c1` [Example 61, 3-[4-(3-cis-Aminocyclobutoxy)phenyl]-N-[(1R)-1-(3-fluorophenyl)ethyl]imidazo[1,2-b]pyridazin-6-amine], the concentration for half-maximal inhibition (IC50) was 1 to 10 nM at ROS1 [1], below 20 nM at ROS1 [2] and 20 to 100 nM in assay [3].

For the compound `C[C@@H](Nc1ccc2ncc(-c3cc(F)cc(OC[C@@H]4CCN4)c3)n2n1)c1cccc(F)c1` [Example 62, 3-[3-[[(2S)-Azetidin-2-yl]methoxy]-5-fluoro-phenyl]-N-[(1R)-1-(3-fluorophenyl)ethyl]imidazo[1,2-b]pyridazin-6-amine], the half-inhibitory concentration (IC50) on ROS1 [1] is below 1 nM; at ROS1 [2], 20 to 100 nM; in assay [3], 20 to 100 nM.

Consider `C[C@H](N)COc1ccc(-c2cnc3ccc(N[C@H](C)c4cccc(F)c4)nn23)cn1` [Example 63, 3-[6-[(2S)-2-Aminopropoxy]-3-pyridyl]-N-[(1R)-1-(3-fluorophenyl)ethyl]imidazo[1,2-b]pyridazin-6-amine], for which the half-inhibitory concentration (IC50) was below 1 nM on ROS1 [1], below 20 nM against ROS1 [2] and below 20 nM in assay [3].
